Measurements published in US4666900A, “Anti-ulcer and anti-hypersecretion dibenzoimidazothiazepine derivatives, compositions, and method of use therefor” (John Wyeth & Brother Ltd., priority 1985, dated 1987).
Read-outs that look alike come from different tables or passages of the source.

Test system: rabbit isolated gastric glands
Assay: Inhibition of secretagogue-stimulated C-aminopyrine uptake in rabbit isolated gastric glands (anti-secretory activity, H+/K+ ATPase)
Format: cell-based
Conditions: 10^-4 M test compound, % inhibition of maximum response to secretagogue; for inhibition at 100 µM: Oryctolagus cuniculus
Method: Compounds of formula I were tested for anti-secretory activity by their ability to inhibit the effect of one or two secretagogues on isolated gastric glands.
Potential inhibitors of the highly specific proton transporting enzyme H^+ /K^+ ATPase were evaluated by a technique involving the measurement of aminopyrine accumulation in rabbit isolated gastric glands. Aminopyrine accumulates in acid-secreting cells; therefore, uptake of aminopyrine is increased by secretagogues and an inhibitor of acid secretion will reduce the response to one or more secretagogues depending upon its site of action. Compounds which reduce the response to dibutyryl cyclic adenosine monophosphate (DBcAMP) stimulation are assumed to have an intracellular site of action, and those which reduce the response to both DBcAMP and high potassium ion concentration (K^+) are thought to have an intracellular site of action at the secretory surface of the parietal cell, involving the highly specific proton-transporting enzyme, H^+ /K^+ ATPase.
The following procedure is used:
Rabbit glands are isolated from gastric mucosa from the corpus region of the stomach by a method based on one described by Berglindh T., Obrink K. J., Acta Physiol. Scand. 96, 150-159 (1976). Measurement of aminopyrine uptake is carried out using a procedure based on the method described by Berglindh T., Hellander H. F., Obrink K. J. (ibid. 97 401-414, 1976).
Compounds are tested at a concentration of 10^-4 M, for their ability to inhibit C-aminopyrine uptake in gastric glands, stimulated by DBcAMP and high K^+ respectively. Results are expressed as the % inhibition of the maximum response to the secretagogue induced by the test compound.

[1] = high K+-stimulated aminopyrine uptake, read-out: % Inhibition to stimulation by: k+
[2] = DBcAMP-stimulated aminopyrine uptake, read-out: % Inhibition to stimulation by: DBcAMP

| % Inhibition to stimulation by: DBcAMP (DBcAMP-stimulated aminopyrine uptake) | % Inhibition to stimulation by: k+ (high K+-stimulated aminopyrine uptake) | Structure (SMILES) | inhibition at 100 µM [1] [%] | inhibition at 100 µM [2] [%] |
| --- | --- | --- | --- | --- |
| ns | – | Cc1cc2nc3n(c2cc1C)Cc1ccccc1CS3 [8,13-Dihydro-4,5-dimethyldibenzo[d,h]imidazo[2,1-b][1,3]thiazepine] | 80 | – |
| – | ns | [O-][S+]1Cc2ccccc2Cn2c1nc1ccccc12 (stereo not drawn) [8,13-Dihydrodibenz[d,h]imidazo[2,1-b][1,3]thiazepine-1-oxide] | – | 31 |
| – | – | c1ccc2c(c1)CSc1nc3ccccc3n1C2 [8,13-Dihydrodibenzo[d,h]imidazo[2,1-b][1,3]thiazepine] | 94 | 32 |
